Test results published in patent publication US4137420A, “Cysteine derivatives” (Santen Pharmaceutical Co., Ltd., priority 1976, dated 1979).

Assays:
[1] = In vitro determination of the reduction in viscosity of egg white; settings: 20 minutes at 37° C, mean ± S.E. of 3 to 5 experiments
Protocol: Mucolytic activity is evaluated by determining the reduction in viscosity of egg white or mucin in vitro. L-Cysteine ethyl ester hydrochloride, L-cysteine methyl ester hydrochloride and acetyl-L-cysteine are used as test compounds for comparison. (1) In vitro determination of the reduction in viscosity of egg white Egg white, which is pooled in sufficient quantity to supply material for all the determinations, is gently blended in a mixer for 5 minutes. 9ml portions of this material are put into a 50-ml beaker and the test solution in a volume of 1ml containing various concentrations of test compound (test compound is dissolved in distilled water and the solution is adjusted to pH 8.0 with 1 N sodium hydroxide, while distilled water is used as a control) is added. The mixture is then shaken for 20 minutes at 37° C. Viscosity of the resulting solution is determined by an Ostwald viscosimeter. Results shown in Table 1 are percent reduction in relative viscosity at various concentrations of the test compound used.

[2] = tested on: mucin; assay: In vitro determination of the reduction in viscosity of mucin; settings: 10 mM; 1% mucin, pH 8.0, 1 hour at 37° C; mean ± S.E. of 3 to 5 experiments
Protocol: Mucolytic activity is evaluated by determining the reduction in viscosity of egg white or mucin in vitro. L-Cysteine ethyl ester hydrochloride, L-cysteine methyl ester hydrochloride and acetyl-L-cysteine are used as test compounds for comparison.
(2) In vitro determination of the reduction in viscosity of mucin
According to the method presented by Sheffner et al. (Ann, N.Y. Acad. Sci., Vol. 106, P 298-310, 1963), bacteriological mucin (Nakarai Chemical Co., Ltd.) is dissolved in Sorensen's phosphate buffer (pH =8.0) and a 1% mucin solution is prepared. 0.9ml portions of the solution are put into test tubes and test compounds (prepared in the same manner as in (1) previously described, except that the buffer solution is used for control) are added to them in a concentration 10mM. The mixture is then shaken for 1 hour at 37° C. The viscosity of the resulting solution is determined by Ostwald viscosimeter. Results shown in Table 1 are percent reduction in relative viscosity at 10mM of the test compounds used.

[3] = Changes in the mucolytic activity of the test compounds treated with rabbit serum (viscosity of egg white); settings: for Reduction in the mucolytic activity (%): 1.0 mM, rabbit serum treated vs untreated; for Percent reduction in relative viscosity of egg white, treated with rabbit serum / Percent reduction in relative viscosity of egg white, untreated with rabbit serum: final concentration 1.0 mM, mean ± S.E. of 3 to 5 experiments; for Percent reduction in relative viscosity of egg white, treated with rabbit serum: after 30 minutes at 37° C with rabbit serum; for Percent reduction in relative viscosity of egg white, untreated with rabbit serum: without rabbit serum
Protocol: (3) Changes in the mucolytic activity of the test compounds treated with rabbit serum.
0.1ml of test compound (prepared in the same manner as (1) previously described) and 0.9ml of rabbit serum are put into a 50-ml beaker and the resulting mixture is shaken for 30 minutes at 37° C. 9ml of egg white is then added it and it is shaken for another 20 minutes. The viscosity of the resulting solution is determined by an Ostwald viscosimeter. Results shown in Table 2 are percent reduction in the relative viscosity of egg white at 1mM of the test compounds after treatment with or without rabbit serum.

[4] = in vivo; settings: mouse, ip
Protocol: 5-week-old male mice of ddy strain (body weight 24-28g) are used. […] Test solution
Test compound is added to physiological saline and the resulting solution is neutralized with sodium hydroxide to form a 5% solution (pH 7.0).
After administration of test solution, general symptoms and deaths which are caused during seven days are observed. The LD50 values are calculated according to the method of Litchfield and Wilcoxon.

Structure (SMILES) | Percent reduction in relative viscosity, egg white ([1]; final concentration 0.1 mM) [%] | Percent reduction in relative viscosity, egg white ([1]; final concentration 10.0 mM) [%] | Percent reduction in relative viscosity, mucin [2] [%] | Reduction in the mucolytic activity (%) [3] [%] | Percent reduction in relative viscosity of egg white, treated with rabbit serum [3] [%] | Percent reduction in relative viscosity of egg white, untreated with rabbit serum [3] [%] | LD50 at 168 h [4] [mg/kg]
CC(S)C(=O)N[C@@H](CS)C(=O)O (single isomer, unassigned) [N-(2-mercaptopropionyl)-L-cysteine-A] | 24.9 ± 1.5 | 56.4 ± 1.6 | 26.6 ± 1.5 | 27.2 | 30.0 ± 1.0 | 41.2 ± 2.1 | 2090
CCOC(=O)[C@@H](N)CS.Cl [L-cysteine ethyl ester hydrochloride, L-Cysteine ethyl ester hydrochloride, reference compound] | 25.1 ± 3.5 | 59.9 ± 1.2 | 19.7 ± 1.5 | 63.3 | 15.4 ± 1.8 | 42.0 ± 1.1 | 
O=C(CCS)N[C@@H](CS)C(=O)O [N-(3-mercaptopropionyl)-L-cysteine] | 22.8 ± 0.1 | 54.5 ± 4.7 | 28.1 ± 0.5 | -5.4 | 38.7 ± 2.6 | 36.7 ± 1.6 | 
O=C(CS)N[C@@H](CS)C(=O)O [N-mercaptoacetyl-L-cysteine] | 26.1 ± 4.1 | 60.0 ± 4.4 | 31.8 ± 1.5 | 9.8 | 35.9 ± 0.3 | 39.8 ± 3.0 | 
COC(=O)[C@@H](N)CS.Cl [L-cysteine methyl ester hydrochloride, reference compound] | 31.1 ± 5.6 | 60.6 ± 2.4 | 17.8 ± 0.2 | 84.6 | 7.0 ± 1.2 | 45.5 ± 2.0 | 
CC(=O)N[C@@H](CS)C(=O)O [N-acetyl-L-cysteine, acetyl-L-cysteine, reference compound] | 11.0 ± 2.6 | 49.0 ± 1.8 | 4.8 ± 2.5 | 37.3 | 18.5 ± 0.8 | 29.5 ± 2.5 | 
CC(S)C(=O)N[C@@H](CS)C(=O)O (single isomer, unassigned) [N-(2-mercaptopropionyl)-L-cysteine-B] | 24.9 ± 1.4 | 57.7 ± 1.0 | 20.1 ± 0.4 | 18.8 | 31.1 ± 3.8 | 38.1 ± 2.6 | 
CC(C)(S)C(=O)N[C@@H](CS)C(=O)O [N-(2-mercaptoisobutyryl)-L-cysteine] | 23.1 ± 1.4 | 57.0 ± 1.0 | 22.5 ± 1.5 | 14.1 | 32.9 ± 1.0 | 38.3 ± 2.2 | 
